Tests used:
[1] = tested on: beet armyworm (BAW; Spodoptera exigua: Lepidoptera); experiment: 96-well microtiter plate-based high throughput (HTS) diet bioassay on beet armyworm (BAW HTS); format: in vivo; conditions: for BAW HTS: 96-well microtiter plate HTS diet assay, 12 μg test compound per well, BAW eggs, mortality at 6 d post-treatment, mortality class; for pest or weed control at 12 µg/well, 12 µg/well: Spodoptera exigua, 144 h, read-out: BAW HTS
Summary of the method: (§1)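 Compound was layered onto artificial diet and dried, then infested: eggs for the 96-well test (12 μg per well, 29° C, dark) and 3–5 second instars for the 128-well tray (50 μg/cm^2, 25° C, 14:10 light-dark). Both ran six days before percent mortality was recorded and averaged across replicates or wells.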

[2] = tested on: beet armyworm (BAW; Spodoptera exigua: Lepidoptera); experiment: 128-well diet tray assay on beet armyworm (BAW 50); format: in vivo; conditions: for BAW 50 ug/cm2: 128-well diet tray assay, 50 μg/cm^2 of test compound on diet, second instar BAW larvae, mortality class; for pest or weed control at 50 µg/cm2, 50 µg/cm2: Spodoptera exigua, 144 h, read-out: BAW 50 ug/cm2
Summary of the method: as §1

| Structure (SMILES) | BAW HTS [1] | pest or weed control at 12 µg/well, 12 µg/well [1] | BAW 50 ug/cm2 [2] | pest or weed control at 50 µg/cm2, 50 µg/cm2 [2] |
| --- | --- | --- | --- | --- |
| CCO[C@@H]1[C@@H](OC)[C@H](C)O[C@@H](OC(=O)N(C(C)=O)c2ccc(-c3ncn(-c4ccc(OC(F)(F)C(F)(F)F)cc4)n3)cc2)[C@@H]1OC [Compound 258, acetyl {4-[1-(4-pentafluoroethoxyphenyl)-1H-[1,2,4]triazol-3-yl]-phenyl}-carbamic acid (2S,3R,4R,5S,6S)-4-ethoxy-3,5-dimethoxy-6-methyl-tetrahydropyran-2-yl ester] | A (the compound was tested and at least 50 percent mortality was observed) | > 50% | A (the compound was tested and at least 50 percent mortality was observed) | > 50% |
| CCO[C@@H]1[C@@H](OC)[C@H](C)O[C@@H](OC(=O)N(C(=O)CCC(=O)OC)c2ccc(-c3ncn(-c4ccc(OC(F)(F)C(F)(F)F)cc4)n3)cc2)[C@@H]1OC [Compound 259, 4-(((2S,3R,4R,5S,6S)-4-ethoxy-3,5-dimethoxy-6-methyl-tetrahydropyran-2-yloxycarbonyl)-{4-[1-(4-pentafluoroethoxy-phenyl)-1H-[1,2,4]triazol-3-yl]-phenyl}-amino)-4-oxo-butyric acid methyl ester] | B (either (1) the compound was tested and less than 50 percent mortality was observed or (2) the compound was not tested) | < 50% | A (the compound was tested and at least 50 percent mortality was observed) | > 50% |

Source: patent publication US8178658B2 (Dow AgroSciences, LLC, priority 2008, dated 2012)
